In brackets after ≈: the same amount, converted by molar mass.
System: Mycobacterium tuberculosis variant bovis BCG
Test: microbe, parasite or virus in culture
Type: functional

| SMILES | MIC90 |
| --- | --- |
| Cc1cc(C)cc(Oc2c(C(C)C)c(=O)[nH]c(=O)n2Cc2cc(N)nc(F)c2)c1 | 9.8 µM (≈ 3.9 µg/mL) |
| Clc1ccc(OCc2noc(CC3CCN(CCOCc4ccccc4)C3)n2)cc1 (configuration not stated) | 6 µM (≈ 2.57 µg/mL) |
| O=C(NCc1ccc2c(c1)OCO2)c1c(C(F)(F)F)nc2ccccn12 | 3.4 µM (≈ 1.24 µg/mL) |
| O=C(C=Cc1cccs1)N1CCN(Cc2ccc(Br)s2)CC1 | 2.8 µM (≈ 1.11 µg/mL) |
| O=C(Nc1nnc(SCc2ccc(F)cc2)s1)c1ccccn1 | 4.6 µM (≈ 1.59 µg/mL) |
| O=C(NC1CCN(Cc2ccc(F)cc2)C1)c1sccc1-c1cccc(Cl)c1 (configuration not stated) | 7 µM (≈ 2.9 µg/mL) |
| CC(=O)N1CCc2cc3nc(C)cc(C)c3cc21 | 3.5 µM (≈ 0.841 µg/mL) |
| Cc1cc(NCCc2ccccc2)nc(NC(=N)Nc2ccc(Cl)cc2)n1 | 2 µM (≈ 0.762 µg/mL) |
| N#Cc1nc(-c2ccc(F)cc2)oc1S(=O)(=O)c1ccc(Br)cc1 | 1.8 µM (≈ 0.733 µg/mL) |
| COc1cccc(-c2nc3c(N4CCCC4)cccc3n2CC2CCCN2)n1.O=C(O)C(F)(F)F (configuration not stated) | 5.8 µM |
| NC(=O)c1nnc(Sc2ccnc(N3CCN(c4ccncc4)CC3)n2)n1-c1ccccc1 | 6.3 µM (≈ 2.9 µg/mL) |
| FC(F)(F)c1ccc2c(N3CCNCC3)ncc(-c3ccsc3)c2n1 | 9.4 µM (≈ 3.43 µg/mL) |
| Cc1ccc(C(=O)Nc2nc(-c3ccccn3)cs2)s1 | 3.7 µM (≈ 1.12 µg/mL) |
| CN(C)c1ccc(NC(=O)Nc2ccccc2C(F)(F)F)cc1 | 6.4 µM (≈ 2.07 µg/mL) |
| O=C(Nc1nc(-c2ccccn2)cs1)c1cccc(-n2cnnn2)c1 | 8.5 µM (≈ 2.97 µg/mL) |
| Br.Cc1cc(C)cc(OCCCON2C(=N)N=C(N)NC2(C)C)c1 | 7 µM |
| CC1=C(C(=O)Nc2ccc3[nH]ncc3c2)C(c2cc(C#Cc3ccccc3)cs2)NC(=O)N1 (configuration not stated) | 2 µM (≈ 0.907 µg/mL) |
| O=C(NC1CCSc2ccccc21)c1ccc(S(=O)(=O)N2CCOCC2)cc1 (configuration not stated) | 3.3 µM (≈ 1.38 µg/mL) |
| Br.CC(C)(C)c1ccccc1OCCCON1C(=N)N=C(N)NC1(C)C | 1.8 µM |

| SMILES | MIC90 |
| --- | --- |
| Fc1cccc2sc(Nc3nc(-c4ccccn4)cs3)nc12 | 2.3 µM (≈ 0.755 µg/mL) |
| COc1ccc(O)c(C(=O)c2cnn(C(=O)c3cccs3)c2)c1 | 1.8 µM (≈ 0.591 µg/mL) |
| Cl.O=C(c1ccco1)N(CCCn1ccnc1)c1nc2c(Cl)cccc2s1 | 7.2 µM |
| Cc1ccc(C(=O)Nc2nnc(-c3ccccc3Cl)o2)cc1 | 6.1 µM (≈ 1.91 µg/mL) |
| COc1ccc(-c2ccc(Nc3cccc(S(=O)(=O)CCNCC(C)(C)C)c3)nc2)cn1 | 2.9 µM (≈ 1.32 µg/mL) |
| NC(=O)c1cnc2ccc(S(=O)(=O)c3ccccc3)cc2c1Nc1ccc(O)c(F)c1 | 7.5 µM (≈ 3.28 µg/mL) |
| Cc1nc2ccccn2c1C(=O)Nc1ccc(C(C)(C)C)cc1 | 4.9 µM (≈ 1.51 µg/mL) |
| CN(C)c1ccc(NC(=O)Nc2cnsn2)cc1 | 3.2 µM (≈ 0.843 µg/mL) |
| COCCN(C)Cc1ccc(-c2cc(-c3c[nH]nc3-c3cccc(C)n3)ccn2)cc1 | 6 µM (≈ 2.48 µg/mL) |
| CCN(CC)CCCn1c(Sc2ccnc(N3CCN(c4ccncc4)CC3)n2)nnc1-c1ccccn1 | 2.4 µM (≈ 1.27 µg/mL) |
| CCc1c(C)nc(-c2cccc(F)c2)nc1N1CCNCC1 | 7.6 µM (≈ 2.28 µg/mL) |
| O=C(CCc1cccs1)Nc1nc(-c2ccccn2)cs1 | 6.4 µM (≈ 2.02 µg/mL) |
| COc1ccc(-c2nc(C(=O)N3CCCCC3c3nc4ccccc4s3)cs2)cc1 (configuration not stated) | 4.8 µM (≈ 2.09 µg/mL) |
| NC(=O)C(N)Cc1c[nH]c2ccc(F)cc12 (configuration not stated) | 2.3 µM (≈ 0.509 µg/mL) |
| O=C(NNC(=O)c1[nH]nc2ccccc12)c1ccco1 | 8.3 µM (≈ 2.24 µg/mL) |
| Cc1cc(C)c2nc3c(cc2c1)CN(Cc1ccco1)C(=O)O3 | 9 µM (≈ 2.78 µg/mL) |
| Nc1nc(SCc2cccc(F)c2F)nc2[nH]c(=O)cnc12 | 4.4 µM (≈ 1.41 µg/mL) |
| CCc1cc(=O)[nH]c(-n2nc(C)cc2NC(=O)c2ccc(C(C)(C)C)cc2)n1 | 0.8 µM (≈ 0.304 µg/mL) |
| COc1ccc(Cc2nn3c(-c4ccc(C)cc4)nnc3s2)cc1 | 7.5 µM (≈ 2.52 µg/mL) |

| SMILES | MIC90 |
| --- | --- |
| Cn1c(CNCCc2nc(C(=O)N3Cc4ccccc4C3)cs2)nc2ccccc21 | 8.1 µM (≈ 3.38 µg/mL) |
| Cn1c(SCC(=O)Nc2sccc2C#N)nnc1-c1ccc(Cl)cc1 | 2.4 µM (≈ 0.936 µg/mL) |
| Cc1nc(-c2cccc(C(F)(F)F)c2)nc(N2CCNCC2)c1C | 0.5 µM (≈ 0.168 µg/mL) |
| Cc1nc2ccccn2c1C(=O)NCc1ccc2c(c1)OCO2 | 3 µM (≈ 0.928 µg/mL) |
| O=C(Cc1ccc(Cl)c(Cl)c1)Nc1nc(-c2ccccn2)cs1 | 3.2 µM (≈ 1.17 µg/mL) |
| CCCCOc1ccc(NC(=O)C2CCCCC2)cc1 | 8.1 µM (≈ 2.23 µg/mL) |
| COc1ccc(-c2cccc(NC(=O)NC3CCCCC3)c2)cn1 | 8.8 µM (≈ 2.86 µg/mL) |
| CCCCCNc1nc(N2CCCC2)c2c(c1C#N)CCN(C)C2 | 1.6 µM (≈ 0.524 µg/mL) |
| COc1ccc(CCNc2nccc(-c3cccc(OC4CCNCC4)c3)n2)cc1 | 4.4 µM (≈ 1.78 µg/mL) |
| CCOc1ncccc1C(=O)Nc1ccccc1Nc1ccccc1 | 6.4 µM (≈ 2.13 µg/mL) |
| COCc1nc(N2CCNCC2)c2c(C)nn(-c3ccc(C)cc3)c2n1 | 3 µM (≈ 1.06 µg/mL) |
| O=C(Nc1ccc(C(=O)N2CCCCC2c2nc3ccccc3s2)cc1)c1ccco1 (configuration not stated) | 0.1 µM (≈ 0.0432 µg/mL) |
| CCn1c(-c2nonc2N)nc2c(C#Cc3ccccc3)ncc(OCCCCN)c21 | 8.1 µM (≈ 3.38 µg/mL) |
| O=C(CSc1nnc(Nc2ccccc2)s1)NNC(=O)c1cccs1 | 8.2 µM (≈ 3.21 µg/mL) |
| Cc1cc(C)n(-c2nc3ccccc3c(=O)[nH]2)n1 | 3.3 µM (≈ 0.793 µg/mL) |
| O=C(NC(Cc1ccccc1)C(=O)Nc1ccccc1N1CCOCC1)c1cccs1 (configuration not stated) | 1.8 µM (≈ 0.784 µg/mL) |
| CN1CCCN(c2ncnc3sc(-c4ccccc4)cc23)CC1 | 7.4 µM (≈ 2.4 µg/mL) |
| CC(C)(C)C(=O)CC1(O)Oc2ccccc2N=C1C=C(O)C(C)(C)C (configuration not stated) | 5.3 µM (≈ 1.83 µg/mL) |
| O=C(Nc1nc(-c2ccccn2)cs1)c1cccc(F)c1 | 2 µM (≈ 0.599 µg/mL) |
